Assays:
[1] = FRAP assay (reduction of Fe(III) to Fe(II)); assay type: biochemical; design: Slope of ΔA593 versus concentration: unit not given here; conditions: for Slope of ΔA593 versus concentration: 37° C.
Procedure: The FRAP assay was performed as previously described (Pulido, et al. J. Agric. Food Chem. 2000, 48, 3396-3402, incorporated herein by reference in its entirety). In the FRAP assay, ferric was reduced by the antioxidant to ferrous via electron transfer (Benzie et al., Anal. Biochem. 1996, 239, 70-76, incorporated herein by reference in its entirety). This assay measured the redox potential of an antioxidant which is used as an estimate of antioxidant efficiency and expressed as a FRAP value. […] The compound 1 as well as the other antioxidants was dissolved in methanol. […] Reaction kinetics of the compound 1 and other antioxidants were obtained by plotting the change in slopes at various times and are shown in FIG. 18. […] This time-dependent increase in absorbance was previously reported (Pulido, et al. J. Agric. Food Chem. 2000, 48, 3396-3402, incorporated herein by reference in its entirety) and was especially significant with polyphenolic compounds. […] However, the FRAP value increased with time, reaching 2.5 in 60 min. […] J. Agric. Food Chem. 2000, 48, 3396-3402, incorporated herein by reference in its entirety). […] EC1 values, and therefore ferric reducing ability, were lower at longer reaction times as expected from the kinetic behavior of the antioxidants (Pulido, et al. J. Agric. Food Chem. 2000, 48, 3396-3402, incorporated herein by reference in its entirety).

[2] = Brand-Williams et al.; cited from earlier work
[3] = ABTS radical cation decolorization assay; assay type: biochemical
Description: We have tested AO activity of G1 (13) using ABTS as a radical source using a previously reported spectroscopic assay. The AO activity of the G1 (13) was compared to those of syringaldehyde, gallic acid, and vitamin C. If the phenolic OH group is the radical scavenging site, the expected AO activity of the G1 (13) should be 4 fold higher than that of syringaldehyde and 1.3 fold higher than that of gallic acid (which has three phenolic OH groups).
ABTS radical cation decolorization assay was used as previously described (Ozgen, et al. J. Agric. Food Chem. 2006, 54, 1151-1157, incorporated herein by reference in its entirety). Like the DPPH assay, this was also a decolorization assay and measured absorbance decrease at 734 nm as the ABTS radical (ABTS•+) is quenched by the antioxidant. The solvent used for the assay was ethanol. ABTS reagent was added to 1.0 mL solvent in a cuvet to bring the absorbance to 0.7. A 10 μL sample of antioxidant was then added, mixed, and the absorbance monitored at 734 nm for 6 min. Antioxidant concentrations were 14.4 μM Trolox, 11.4 μM ascorbic acid, 15.4 μM syringaldehyde, and 3 μM compound 1. The % decrease in absorbance at 6 min was plotted against antioxidant concentrations. The gradient of the line obtained by linear regression for a given antioxidant was divided by that obtained for Trolox to yield Trolox equivalent antioxidant (TEAC) values. All samples were made in ethanol and run in triplicates and at room temperature.

DPPH radical assay = assay: DPPH radical assay
Procedure: The DPPH assay was one of three electron transfer (ET) assays used to determine the antioxidant potential of compound 1 (described in Example 6) in comparison to its monomeric counterpart (syringaldehyde) as well as popular antioxidants. In an ET assay, an antioxidant donates electron(s) to a molecular probe, thus reducing it. From the assay, thermodynamic conversion of antioxidant to antioxidant radical (oxidation) is measured during a fixed time period.
The reduction of DPPH radical was determined for ascorbic acid, Trolox, syringaldehyde, and the compound 1 described in Example 6 as previously reported (Brand-Williams, et al. Lebensm.-Wiss U.-Technol. 1995, 28, 25-30, incorporated herein by reference in its entirety). In the DPPH assay, DPPH• radical was reduced by the antioxidant in methanol (Brand-Williams, et al. Lebensm.-Wiss U.-Technol. 1995, 28, 25-30, incorporated herein by reference in its entirety). […] The DPPH reagent was made in methanol. Antioxidant sample (10 μL) was added to 1.0 mL of reagent and the absorbance was monitored at 515 nm until a plateau was reached. Antioxidant concentrations were 50 μM syringaldehyde, 12.5 μM Trolox and ascorbic acid, and 5 μM compound 1. All samples were made in methanol and run in triplicates at room temperature.
The DPPH• scavenging capacity of each antioxidant was evaluated from the plot of the percentage DPPH• remaining when the kinetics reached a steady state as a function of the molar ratios of antioxidant to DPPH•. […] Using the curve, EC50 (the amount of antioxidant necessary to decrease the initial DPPH• concentration by 50%), antiradical power (1/EC50, ability to reduce the DPPH•), reaction stoichiometry (EC50×2, the concentration of antioxidant required to reduce 100% of DPPH• radical), and the number of reduced DPPH• per antioxidant molecule (1/stoichiometry) for each antioxidant were calculated as previously described (Brand-Williams, et al. Lebensm.-Wiss U.-Technol. 1995, 28, 25-30, incorporated herein by reference in its entirety) and are depicted in Table 1.
Antioxidant capacity of the compounds was assessed by the DPPH assay (Brand-Williams, et al. Lebensm. Wiss. Technol. 1995, 28, 25, incorporated herein by reference in its entirety). […] In FIG. 22, control with methanol is (X, dashed); compound 1 is (□), compound 2 is (•), compound 3 is (◯), and Trolox (Δ). All antioxidant concentrations were 5 μM.
The free-radical scavenging ability of the antioxidants was evaluated by the DPPH assay, as described above in Example 7.

Human LDL = assay: Protection of LDL from AAPH oxidation (agarose gel electrophoresis); assay type: biochemical; conditions: 1-30 μM, 20 mM AAPH, 21 h, 37° C.
Description: The antioxidant activity of compounds 1, 2, and 3 towards biomolecules was examined by studying their ability to protect LDL, fatty acid, and DNA from free radicals. For LDL, AAPH was used to induce free radical damage. AAPH was used instead of copper (Cu^2) ion for LDL oxidation so that the free radical scavenging activity of the antioxidants could be measured without any pro-oxidant interference caused by metal ions (Salah, N. et al. Arch. Biochem. Biophys. 1995, 322, 339, incorporated herein by reference in its entirety). All solutions were made in ultra-pure water.
Protection of LDL from AAPH free radicals by the antioxidant decreased the anodic shift in a dose-dependent manner (FIG. 23). […] The increased hydrophobicity of compound 3 may be partly responsible for its improved LDL protection over compound 2.
The antioxidant activity of the antioxidants towards biomolecules was examined by studying their ability to protect LDL, lysozyme, and DNA from free radicals. For LDL, AAPH was used to induce free radical damage. AAPH was used instead of Cu^2+ for LDL oxidation so that the free radical scavenging activity of the antioxidants could be measured without any pro-oxidant interference caused by metal ions. The oxidation of human low-density lipoprotein was used as a model for evaluating the ability of the G1 dendrimers as chain-breaking antioxidants for lipid. Oxidation of LDL leads to changes in both the lipid and the protein moieties of the lipoprotein particle. Lipid peroxidation in LDL has been evaluated by a variety of methods. Due to the complexity of events that occur in lipoprotein oxidation, the electrophoretic migration pattern of oxidized LDL is one of the best methods to evaluate the extent of lipoprotein oxidation. LDL was incubated with 20 mM AAPH and increasing concentrations of the G1 dendrimers (0-37 μM in PBS) for 21 h at 37° C. The mixture was then subjected to agarose gel electrophoresis using the Ciba Corning Clinical Electrophoresis System. The agarose gel was stained with Fat Red 7B. In FIG. 30A (top), lane 1 is native LDL, and lanes 2-8 are AAPH-oxidized LDL with 0, 37, 18.5, 9, 4.5, 2 and 1 μM compound 4, respectively. In FIG. 30B (bottom), lane 1 is native LDL, and lanes 2-8 are AAPH-oxidized LDL with 0, 37, 18.5, 9, 4.5, 2 and 1 μM quercetin or Trolox, respectively.

pBR 322 DNA with Cu2+ = assay: Pro-oxidant effect: oxidation of DNA with copper (II) ion; conditions: 10 μM Cu2+, 37° C., 1 h
Procedure: The pro-oxidant effect of compounds 1, 2, and 3 was examined by oxidation of DNA with copper (II) ion. pBR 322 was incubated with 10 μM Cu^2+ at 37° C. for 1 h in the presence of compound 1, 2, or 3 (final concentrations between 0.35 and 45 μM). […] Lane 1 is native DNA, and lanes 2-10 are Cu^2+-oxidized DNA with 0, 45, 23, 11, 5, 3, 1.5, 0.7, and 0.35 μM antioxidant, respectively.
This was performed by co-incubation of DNA (pBR 322), copper (II) ion and antioxidant. […] This ultimately forms DNA-Cu(I)OOH, initiating a free radical cascade by which DNA damage occurs. pBR 322 was incubated with 10 μM Cu^2+ in the presence of antioxidants (0-45 μM) at 37° C. for 1 h and subjected to agarose electrophoresis. […] In FIG. 32, lane 1 is native DNA, and lanes 2-10 are Cu^2+ oxidized DNA with 0, 45, 23, 11, 5, 3, 1.5, 0.7, and 0.35 μM antioxidant, respectively. […] However, it should be noted that physiological concentrations of copper are less than 10-20 μM in plasma and approximately […] for the cation in cells.

plasmid DNA pBR 322 = assay: Protection of plasmid DNA from AAPH damage (agarose electrophoresis); assay type: biochemical; conditions: 10 mM AAPH, 37° C., 4 h
Procedure: The effectiveness of the three compounds to protect DNA from AAPH damage was also determined. The plasmid DNA pBR 322 was incubated with AAPH (final concentration 10 mM) at 37° C. for 4 h with or without antioxidants (final concentrations, 0.35-45 μM), after which the samples were subjected to agarose electrophoresis (Sakihama, Y., et al. Toxicology 2002, 177, 67, incorporated herein by reference in its entirety). […] In the absence of AAPH, pBR 322 was mostly in its supercoiled (S) form (small amount of open circular, O, form was also visible, lane 1 FIG. 25). After reaction with AAPH, the DNA was transformed almost entirely into its open circular form (lane 2, FIG. 25). […] No protection was obtained for both compound 1 and quercetin below 5 μM (lanes 7-10, FIG. 25). […] Compound 3 as well as Trolox were ineffective at all concentrations used in the experiment (0.35-45 μM).
Protection of DNA from free radical damage by the antioxidant dendrimers (compounds 4, 5, and 1) was also evaluated. Plasmid DNA (pBR 322) samples, were incubated with AAPH (final concentration 10 mM) at 37° C. for 4 h with antioxidants (final concentrations, 0.35-45 μM) and subjected to agarose electrophoresis. […] The native DNA was mostly in its supercoiled (S) form (small amount of open circular, O, form was also visible, lane 1, FIG. 31). In the presence of AAPH, the DNA was transformed almost entirely into its O form (lane 2, FIG. 31). […] Negligible DNA protection was afforded by all three dendrimers at ≦2.5 μM (lanes 7-10, FIG. 31). Under similar conditions, Trolox as well as the starting materials for dendrimer synthesis were ineffective at all concentrations.

SMILES: O=C1O[C@H]([C@@H](O)CO)C(O)=C1O [Ascorbic acid, ascorbic acid]
- Antioxidant Capacity Relative to Trolox, FRAP 5 min ([1]; 5 min): 0.91
- EC1 (concentration with ferric-TPTZ reducing ability equivalent to 1 mM FeSO4.7H2O) ([1]; 5 min): 505 µM
- FRAP value relative to Fe(II) ([1]; 5 min, listed as Ascorbic Acid): 2.0
- FRAP value relative to Fe(II) ([1]; 5 min, listed as ascorbic acid): ~2
- FRAP value relative to Fe(II) ([1]; 15 min): 2.1
- FRAP value relative to Fe(II) ([1]; 30 min): 2.3
- Antioxidant Capacity Relative to Trolox, FRAP 60 min ([1]; 60 min): 1.1
- EC1 (concentration with ferric-TPTZ reducing ability equivalent to 1 mM FeSO4.7H2O) ([1]; 60 min): 395 µM
- FRAP value relative to Fe(II) ([1]; 60 min): 2.5
- Slope of ΔA593 versus concentration ([1]; Reaction time 5 min): 0.0238
- Slope of ΔA593 versus concentration ([1]; Reaction time 15 min): 0.0255
- Slope of ΔA593 versus concentration ([1]; Reaction time 30 min): 0.0272
- Slope of ΔA593 versus concentration ([1]; Reaction time 60 min): 0.0305
- ARP, previously reported value [2]: 3.70
- Stoichiometry, previously reported value [2]: 0.54
- number of reduced DPPH• per antioxidant molecule, previously reported value [2]: 1.85
- Antioxidant Capacity Relative to Trolox, ABTS [3]: 0.90
- time to reach a plateau of ABTS•+ absorbance suppression ([3]; 14.4 μM Trolox, 11.4 μM ascorbic acid): one
- IC50 ([3]; final concentration in the cuvet, read-out: concentration at which 50% inhibition of ABTS•+ was observed): ~13 µM
- Slope of % decrease in absorbance at 6 min versus antioxidant concentration ([3]; linear regression, concentration in μM): 3.6
- TEAC ([3]; slope divided by that of Trolox, % decrease in A734 at 6 min, ethanol): 0.9
- # of DDPH• reduced per antioxidant molecule (1/stoichiometry) (DPPH radical assay): 1.8
- Antioxidant Capacity Relative to Trolox, DPPH (DPPH radical assay): 1

SMILES: O=c1c(O)c(-c2ccc(O)c(O)c2)oc2cc(O)cc(O)c12 [quercetin]
- protection of LDL at all antioxidant concentrations (Human LDL): ineffective
- pro-oxidant DNA damage (pBR 322 DNA with Cu2+; 11-45 μM antioxidant): DNA damage was clearly observed
- pro-oxidant effect (pBR 322 DNA with Cu2+; between 3 and 5 μM antioxidant): more pronounced pro-oxidant effect than compound 1
- DNA protection (plasmid DNA pBR 322; 5 μM antioxidant): not
- DNA protection (plasmid DNA pBR 322; below 5 μM antioxidant): No protection
- IC50 (DPPH radical assay; read-out: DPPH IC50 at 120 min, Example 15): 10 µM

From patent publication US8895032B2, “Dendritic nano-antioxidants” (Central Michigan University, priority 2009, dated 2014)
